Read-outs that look alike come from different tables or passages of the source.

One data set concerns FaDu cell line. Nature of the data set: Prodrug Activation in Hypoxic Stirred Tumour Cell Suspensions. The settings on record: 10 μM, 4 hours.
In data set [1] the target is T1, DNA-PK phosphorylation at Serine 2056 (Homo sapiens, UniProt P78527).
T1 construct: FaDu cells were purchased from ATCC; host or cells: FaDu
Nature of the data set: Cellular Assay for Inhibition of DNA-PK Phosphorylation at Serine 2056 in FaDu cells (sandwich ELISA, neocarzinostatin). The settings on record: pSer2056 DNA-PK, Table 3. It counts as cell-based. Summed up:
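pSer2056 and total DNA-PK were measured by sandwich ELISA in BCA-normalised FaDu lysates. Cells had 1 h compound exposure (0.3% DMSO), then 2 h with 1 μg/mL final neocarzinostatin. IC50 was fitted (variable slope) to % inhibition scaled against NCS-stimulated and DMSO-only controls.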
For orientation: In an ELISA, binding on a coated surface is turned into a signal by an enzyme label.

The subject of data set [2] is pH2AX induction in HCT116 ATM-/- multicellular tumour spheroids. The data set is described as follows: Prodrug Radiation Sensitization in Multicellular Tumour Spheroids, inhibition of pH2AX induction following radiation. The settings on record: Homo sapiens, HCT-116, 20 Gy. It counts as cell-based. Summed up: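 Endpoint: pH2AX (ser 139) or pDNA-PK (ser 2056) in cryosections fixed 1 or 2 h after 20 Gy, comparing oxygenated outer with hypoxic inner layers. Spheroids of ~0.5 mm (HCT116, FaDu; ATM-deficient cells used) held at 20% or 5% O2, 37 °C, stirred. Prodrug range 3.5 nM–10 μM.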

The mark [3] stands for this setting: 5% O2, inner layers, read-out: Prodrug 5% O2 Inner layers EC50.
Setting [4] is: 5% O2, outer layers, read-out: Prodrug 5% O2 Outer layers EC50.
[5] abbreviates: 20% O2, outer layers, read-out: Prodrug 20% O2 Outer layers EC50.

Usually IC50 stands for the concentration that gives 50% inhibition. One may read the EC50 as the concentration needed to bring the measured effect to its halfway point. For the compound `Cn1c(COc2cnc3cc(N4CCOCC4)nc(O[C@H]4CC[C@@H](Nc5ncc(OCCN6CCOCC6)cn5)CC4)c3c2)cnc1[N+](=O)[O-]` [LFA2069, N-[4-[[3-[(3-methyl-2-nitro-imidazol-4-yl)methoxy]-7-morpholino-1,6-naphthyridin-5-yl]oxy]cyclohexyl]-5-(2-morpholinoethoxy)pyrimidin-2-amine], the “Fraction of prodrug converted to active form, Hypoxic 0.2% O2” value (“Fraction … Hypoxic 0.2% O2” for short) in the data set on FaDu cell line is “A (A is 0.15 to 1)”. Further, the “Fraction of prodrug converted to active form, Oxic 5% O2” value (“Fraction … Oxic 5% O2” for short) in the data set on FaDu cell line is “C (C is 0.02 to 0.05)”. This compound showed an IC50 in data set [1] of 10000 to 30000 nM. Also, the EC50 lay in the range of 10 to 500 nM in data set [2] (setting [3]), 1000 to 10000 nM in data set [2] (setting [4]) and 1000 to 10000 nM in data set [2] (setting [5]).

Take `CC(c1cnc([N+](=O)[O-])n1C)N(c1cnc2cc(N3CCOCC3)nc(O[C@H]3CC[C@@H](Nc4ncc(N5CCN(C)CC5)cn4)CC3)c2c1)S(C)(=O)=O` (stereo partly drawn) [LFA2070, N-[1-(3-methyl-2-nitro-imidazol-4-yl)ethyl]-N-[5-[4-[[5-(4-methylpiperazin-1-yl)pyrimidin-2-yl]amino]cyclohexoxy]-7-morpholino-1,6-naphthyridin-3-yl]methanesulfonamide]: the “Fraction … Hypoxic 0.2% O2” value with FaDu cell line is “B (B is 0.05 to 0.15)”. Besides, in the data set on FaDu cell line, the “Fraction … Oxic 5% O2” value is listed as “D (D is 0 to 0.02)”. For the same compound, in data set [1], the IC50 is 10000 to 30000 nM. Besides, the results for the EC50 in data set [2] (setting [3]), in data set [2] (setting [4]) and in data set [2] (setting [5]) were 10 to 500 nM, 1000 to 10000 nM and 10000 to 100000 nM, respectively.

In the case of `Cn1c(COc2cnc3cc(N4CCOCC4)nc(O[C@H]4CC[C@@H](N(C)c5ncccn5)CC4)c3c2)cnc1[N+](=O)[O-]` [LFA2071, N-methyl-N-[4-[[3-[(3-methyl-2-nitro-imidazol-4-yl)methoxy]-7-morpholino-1,6-naphthyridin-5-yl]oxy]cyclohexyl]pyrimidin-2-amine], the “Fraction … Hypoxic 0.2% O2” value with FaDu cell line is recorded as “A (A is 0.15 to 1)”. In addition, in the data set on FaDu cell line, the “Fraction … Oxic 5% O2” value was “B (B is 0.05 to 0.15)”. Besides, the IC50 in data set [1] was in the range of 10000 to 30000 nM. In addition, the values for the EC50 in data set [2] (setting [3]), in data set [2] (setting [4]) and in data set [2] (setting [5]) were 10 to 500 nM, 1000 to 10000 nM and 1000 to 10000 nM, respectively.

In the case of `CN1CCN(c2cnc(N[C@H]3CC[C@@H](Oc4nc(N5CCOCC5)cc5ncc(N(Cc6cnn(C)c6[N+](=O)[O-])S(C)(=O)=O)cc45)CC3)nc2)CC1` [LFA2072, N-[(1-methyl-5-nitro-pyrazol-4-yl)methyl]-N-[5-[4-[[5-(4-methylpiperazin-1-yl)pyrimidin-2-yl]amino]cyclohexoxy]-7-morpholino-1,6-naphthyridin-3-yl]methanesulfonamide], the “Fraction … Hypoxic 0.2% O2” value in the data set on FaDu cell line is “B (B is 0.05 to 0.15)”. In the data set on FaDu cell line, the “Fraction … Oxic 5% O2” value is on record as “B (B is 0.05 to 0.15)”. This compound also registered an IC50 in data set [1] of 1000 to 10000 nM. Besides, the EC50 in data set [2] (setting [3]) lay within 10 to 500 nM; in data set [2] (setting [4]), 10 to 500 nM; in data set [2] (setting [5]), 1000 to 10000 nM.

As to `CC(c1cnn(C)c1[N+](=O)[O-])N(c1cnc2cc(N3CCOCC3)nc(O[C@H]3CC[C@@H](Nc4ncc(OCCN(C)C)cn4)CC3)c2c1)S(C)(=O)=O` (stereo partly drawn) [LFA2073, N-[5-[4-[[5-[2-(dimethylamino)ethoxy]pyrimidin-2-yl]amino]cyclohexoxy]-7-morpholino-1,6-naphthyridin-3-yl]-N-[1-(1-methyl-5-nitro-pyrazol-4-yl)ethyl]methanesulfonamide], the “Fraction … Hypoxic 0.2% O2” value in the data set on FaDu cell line was “B (B is 0.05 to 0.15)”. Besides, in the data set with FaDu cell line, the “Fraction … Oxic 5% O2” value is on record as “C (C is 0.02 to 0.05)”. Besides, in data set [1], the IC50 lay in the range of 1000 to 10000 nM. Moreover, the EC50 in data set [2] (setting [3]) was in the range of 10 to 500 nM; in data set [2] (setting [4]), 1000 to 10000 nM; in data set [2] (setting [5]), 1000 to 10000 nM.

On to `CC(c1cnc([N+](=O)[O-])n1C)N(c1cnc2cc(N3CCOCC3)nc(O[C@H]3CC[C@@H](Nc4ncc(CCN5CCOCC5)cn4)CC3)c2c1)S(C)(=O)=O` (stereo partly drawn) [LFA2074, N-[1-(3-methyl-2-nitro-imidazol-4-yl)ethyl]-N-[7-morpholino-5-[4-[[5-(2-morpholinoethyl)pyrimidin-2-yl]amino]cyclohexoxy]-1,6-naphthyridin-3-yl]methanesulfonamide], for which, in the data set with FaDu cell line, the “Fraction … Hypoxic 0.2% O2” value is “B (B is 0.05 to 0.15)”. Besides, the “Fraction … Oxic 5% O2” value with FaDu cell line was “C (C is 0.02 to 0.05)”. The IC50 in data set [1] is 1000 to 10000 nM. Moreover, the results for the EC50 in data set [2] (setting [3]), in data set [2] (setting [4]) and in data set [2] (setting [5]) were 10 to 500 nM, 500 to 1000 nM and 1000 to 10000 nM, respectively.

Consider `CN(C)CCOc1cnc(N[C@H]2CC[C@@H](Oc3nc(N4CCOCC4)cc4ncc(N(Cc5cnn(C)c5[N+](=O)[O-])S(C)(=O)=O)cc34)CC2)nc1` [LFA2075, N-[5-[4-[[5-[2-(dimethylamino)ethoxy]pyrimidin-2-yl]amino]cyclohexoxy]-7-morpholino-1,6-naphthyridin-3-yl]-N-[(1-methyl-5-nitro-pyrazol-4-yl)methyl]methanesulfonamide], for which the “Fraction … Hypoxic 0.2% O2” value with FaDu cell line is listed as “B (B is 0.05 to 0.15)”. Besides, the “Fraction … Oxic 5% O2” value with FaDu cell line is “B (B is 0.05 to 0.15)”. The same compound gave an IC50 in data set [1] of 1000 to 10000 nM. The EC50 in data set [2] (setting [3]) lay in the range of 10 to 500 nM; in data set [2] (setting [4]), 500 to 1000 nM; in data set [2] (setting [5]), 1000 to 10000 nM.

Turning to `Cn1ncc(CN(c2cnc3cc(N4CCOCC4)nc(O[C@H]4CC[C@@H](Nc5ncc(OCCN6CCOCC6)cn5)CC4)c3c2)S(C)(=O)=O)c1[N+](=O)[O-]` [LFA2076, N-[(1-methyl-5-nitro-pyrazol-4-yl)methyl]-N-[7-morpholino-5-[4-[[5-(2-morpholinoethoxy)pyrimidin-2-yl]amino]cyclohexoxy]-1,6-naphthyridin-3-yl]methanesulfonamide], in the data set with FaDu cell line, the “Fraction … Hypoxic 0.2% O2” value is “B (B is 0.05 to 0.15)”. In addition, the “Fraction … Oxic 5% O2” value with FaDu cell line is listed as “B (B is 0.05 to 0.15)”. Besides, in data set [1], the IC50 fell in the range of 1000 to 10000 nM. For the same compound, the EC50 in data set [2] (setting [3]), in data set [2] (setting [4]) and in data set [2] (setting [5]) was 10 to 500 nM each time.

Take `CC(c1cnn(C)c1[N+](=O)[O-])N(c1cnc2cc(N3CCOCC3)nc(O[C@H]3CC[C@@H](Nc4ncc(OCCN5CCOCC5)cn4)CC3)c2c1)S(C)(=O)=O` (stereo partly drawn) [LFA2077, N-[1-(1-methyl-5-nitro-pyrazol-4-yl)ethyl]-N-[7-morpholino-5-[4-[[5-(2-morpholinoethoxy)pyrimidin-2-yl]amino]cyclohexoxy]-1,6-naphthyridin-3-yl]methanesulfonamide]: the “Fraction … Hypoxic 0.2% O2” value in the data set with FaDu cell line is “B (B is 0.05 to 0.15)”. Moreover, the “Fraction … Oxic 5% O2” value with FaDu cell line is recorded as “B (B is 0.05 to 0.15)”. In addition, in data set [1], the concentration for half-maximal inhibition (IC50) is 1000 to 10000 nM. The EC50 in data set [2] (setting [3]) lay in the range of 10 to 500 nM; in data set [2] (setting [4]), 500 to 1000 nM; in data set [2] (setting [5]), 10 to 500 nM.

Take `Cc1cc(C)nc(N[C@H]2CC[C@@H](Oc3nc(N4CCOCC4)cc4ncc(OCc5cnc([N+](=O)[O-])n5C)cc34)CC2)n1` [LFA2081, 4,6-dimethyl-N-[4-[[3-[(3-methyl-2-nitro-imidazol-4-yl)methoxy]-7-morpholino-1,6-naphthyridin-5-yl]oxy]cyclohexyl]pyrimidin-2-amine]: the “Fraction … Hypoxic 0.2% O2” value with FaDu cell line is reported as “B (B is 0.05 to 0.15)”. The “Fraction … Oxic 5% O2” value in the data set with FaDu cell line is listed as “B (B is 0.05 to 0.15)”. In data set [1], this compound displayed an IC50 of 10000 to 30000 nM. Further, the EC50 in data set [2] (setting [3]) lay within 500 to 1000 nM; in data set [2] (setting [4]), 1000 to 10000 nM; in data set [2] (setting [5]) it was 1000 to 10000 nM.

These data come from patent publication US20240239790A1, “7-Morpholino-1,6-Naphthyridin-5-yl Derivatives and Pharmaceutical Compositions Thereof Useful as DNA-PK Inhibitor” (adMare Therapeutics Society, priority 2021, published 2024).
